Results from ChEMBL document CHEMBL4229412, “Design, synthesis, in vitro and in vivo evaluation, and structure-activity relationship (SAR) discussion of novel dipeptidyl boronic acid proteasome inhibitors as orally available anti-cancer agents for the treatment of multiple myeloma and mechanism studies” (Bioorg Med Chem, 2018).

Assay: in vivo
Details: Sprague-Dawley, rat, po, 1.2 mg/kg

Work on `CC(C)C[C@H](NC(=O)CNC(=O)c1cc(Cl)ccc1Cl)B(O)O` [IXAZOMIB] yielded a bioavailability of 27.8%.
